Test [1] has as its system hapten affinity-purified D-mannitol-specific antibody. The test is described as follows: ELISA inhibition: specificity and cross-reactivity of the hapten affinity-purified antibody, D-mannitol-KLH coated wells. The format is binding, rabbit. As to conditions: for Inhibition in ELISA (in words): comparison among inhibitors; for IC50: read-out: IC50 (concentration required for 50% inhibition in ELISA). How it is done:
FIG. 5 depicts specificity of the purified D-mannitol-specific antibody determined by ELISA inhibition. D-Mannitol-KLH conjugate (10 ng/well) was used for coating. The purified antibody (at 1:100 dilution) was preincubated with various inhibitors at different concentrations at 37° C. for 1 h before adding to the coated wells.
FIG. 6 depicts stereo specificity of the purified D-mannitol-specific antibody determined by ELISA inhibition. As L-mannitol is not available commercially, L-mannitol-BSA conjugate (prepared using L-mannose) was used as inhibitor and the inhibition was compared with that of D-mannitol-BSA conjugate.
To check for the formation of hapten-specific antibodies the antiserum was analyzed by non-competitive ELISA using the coated antigen format. The titer of the antiserum was determined by measuring the binding of serial dilutions of antiserum to coated mannitol-KLH conjugate. Flat bottom polystyrene microtiter wells were coated with mannitol-KLH conjugate at 1000, 100, 50, 10, and 1 ng per well in carbonate-bicarbonate buffer, pH 9.6 by incubating at 4° C. overnight. The wells were washed thrice between steps using PBS containing 0.05% Tween 20 (PBS-T). Blocking was done using 0.5% gelatin in PBS-T (blocking buffer) at 37° C. for 30 min. Antiserum diluted in blocking buffer (1:10, 1:100, 1:1000, 1:10000, 1:25000, 1:50000, 1:75000; 1:100000, 1:200000, 1:400000) was added (100 μL/well) and incubated at 37° C. for 2 h. Mouse anti-rabbit IgG-alkaline phoshatase secondary antibody (1:5000 dilution in blocking buffer, 100 μL/well) was added and incubated at 37° C. for 1 h. Color development was done using p-nitrophenyl phosphate (1 mg/mL, 100 μL/well) in diethanolamine buffer, pH 9.8, at 37° C. for 30 min. The reaction was stopped by adding 3 M NaOH (40 μL/well) and the absorbance at 405 nm was read in an ELISA reader.
The hapten affinity-purified D-mannitol-specific antibody was used for ELISA experiments to obtain the binding curves using D-mannitol-KLH conjugate for coating, and to study the specificity and cross-reactivity by ELISA inhibition experiments. Here, purified antibody was preincubated with various concentrations of inhibitors at 37° C. for 1 h before adding to coated microtiter wells. Other steps were as described under ‘Titration of antiserum’. Percent cross-reactivity for various inhibitors was calculated using the formula: […]
(In general: In an ELISA, binding on a coated surface is turned into a signal by an enzyme label.)

Test [2] relates to mannitol-specific mast cell-bound human IgE. The test is described as follows: Skin prick test (SPT) in an allergic subject sensitized to mannitol. In kind it is in vivo. The conditions noted are these: for Wheal diameter / Flare diameter: SPT, free compounds at 0.1%; for Wheal diameter: first figure of wheal/flare; for Flare diameter: second figure of wheal/flare. An excerpt:
A D-mannitol-BSA and D-mannitol-KLH conjugate was used for skin prick test (SPT) in a mannitol-allergic subject, after obtaining Institutional Ethics Committee (IEC) clearance, and informed consent. D-Mannitol and its conjugates with BSA and KLH produced positive test whereas, D-mannose and control BSA and control KLH gave negative test (Table 2). L-Mannitol BSA conjugate was negative in SPT. All these samples were negative in SPT in 10 normal subjects.

The mark [3] stands for this setting: (IC50 for D-mannitol ÷ IC50 for test compound) × 100.
Setting [4] is: free sugars/sugar alcohols as competitor, D-mannitol-KLH 10 ng/well coating, antibody 1:100, preincubated 37° C. 1 h.

Like-named read-outs stand apart in the source and are kept apart here.

Consider `OC[C@@H](O)[C@@H](O)[C@H](O)[C@@H](O)CO` [D-Glucitol], for which the Percent cross-reactivity is 8.8% in test [1] (setting [3]) and ~9% in test [1] ((IC50 for D-mannitol ÷ IC50 for test compound) × 100, listed as D-glucitol (sorbitol)). Moreover, in test [1], the “Inhibition in ELISA (in words)” value is “higher compared to that by meso-erythritol and D-mannose”. Further, the IC50 in test [1] (setting [4]) turned out to be 60 mM.
For the compound `OC[C@@H](O)[C@@H](O)[C@H](O)[C@H](O)CO` [D-Mannitol], the Percent cross-reactivity in test [1] (setting [3]) is given as 100.0%. Moreover, in test [1], the “Inhibition in ELISA (in words)” value is reported as “maximum inhibition”. The IC50 in test [1] (setting [4]) worked out at 5.25 mM. Also, in test [2], the “SPT result (positive/negative)” value is on record as “positive”, the Wheal diameter is recorded as 5 mm and the Flare diameter was 25 mm.
`O=C[C@@H](O)[C@@H](O)[C@H](O)[C@H](O)CO` [D-Mannose] gave a Percent cross-reactivity in test [1] (setting [3]) of 4.9%. In test [2], the “SPT result (positive/negative)” value was “negative”, the Wheal diameter was 1 mm and the Flare diameter was found to be 0 mm.
In the case of `NCCc1c[nH]cn1` [Histamine base], in test [2], the Wheal diameter is 6 mm and the Flare diameter stood at 30 mm.
On to `NCCCC[C@H](N)C(=O)O` [L-lysine], for which, in test [1] (setting [3]), the Percent cross-reactivity is recorded as 2%.
`OCC(O)C(O)CO` (stereo not drawn) [meso-Erythritol]: the Percent cross-reactivity in test [1] (setting [3]) stood at 4.9%.
In the case of “Control BSA: BSA incubated under the conjugation conditions, excluding D-mannose”, in test [2], the “SPT result (positive/negative)” value is “negative”, the Wheal diameter is listed as 1 mm and the Flare diameter was determined as 0 mm.
For “N-(1-deoxy-D-mannitol-1-yl)n-carrier [D-Mannitol-BSA conjugate]”, the IC50 in test [1] (BSA conjugates as inhibitor (stereospecificity, FIG. 6)) is 0.00064 mM. The Percent cross-reactivity in test [1] (conjugate inhibitors, relative to D-mannitol-BSA conjugate) was 100.00%. In test [2], the “SPT result (positive/negative)” value is recorded as “positive”, the Wheal diameter was determined as 4 mm and the Flare diameter is 30 mm.
On to “N-(1-deoxy-D-mannitol-1-yl)n-carrier [D-Mannitol-KLH conjugate]”, for which, in test [2], the “SPT result (positive/negative)” value was “positive”, the Wheal diameter was found to be 4 mm and the Flare diameter is reported as 25 mm.

These data come from US20040191241A1, “Antigen with haptenic mannitol epitopes and a method of preparing antibodies specific to D-mannitol” (COUNCIL OF SCIENTIFIC AND INDUSTRIAL RESEARCH, priority 2003, published 2004).
